Assays:
Fusarium spp. [1] = experiment: Field trial onion var. Fundador, emergence and bio-control under natural Fusarium spp. inoculum pressure (FC2020); assay type: in vivo; settings: first survey (18 days after the sowing), control 178.12
Experimental: (§1) In this experiment, onion var. Elenka was tested. The test experimental design was organized at randomized blocks for the 4 treatment types, each in duplicate. In the extended test carried out at an experimental field with high natural pressure of fungal inoculum of Fusarium spp., the experimental plots had the following dimensions: 1.8 m (width)×25 m (length) with four sowing rows per parcel The sowing was performed with mechanical seeder (mod. SPX 2015-Bassi Seminatrici, IT) at the density of 600,000 onion seeds per hectare. The surveys were carried out on a length of 20 meters, in the medial part of each respective plot. The recorded data of disease severity were subjected to statistical analysis of the variance (one-way ANOVA). The results were compared to the post hoc Tukey's HDS test.
For trial description, experimental design, agronomic practices, see Example 7. […]. The recorded data were subjected to statistical analysis of the variance (one-way ANOVA). The results were compared to the post hoc Tukey's HDS test.

fennel var. Crono [2] = experiment: Commercial field trial fennel var. Crono, emergence and germination (AQ2020); assay type: in vivo, Foeniculum vulgare
From the text: In this experiment, the fennel var. Crono was used, in order to study the effect of Streptomyces sp. DLS 1568, applied as microbial coating agent, on the emergence and germination of the crop.
The test experimental design was organized at randomized blocks for the 4 treatment types, each in duplicate (replicate). In the experimental test carried out at a plot, the experimental parcels had the following dimensions: 1.5 m (width)×100 m (length) with four sowing rows per plot. The sowing was carried out with a mechanical seeder. During the experimental field trials, conducted according to the best agronomical practices, harmful bacteria and insects' infections were not observed, causing damages to the cultures during the experiment. Weeds were controlled according to the farms' integrated weed management.
The first survey was carried out 20 days after the sowing, assessing the whole length of each plots. The second survey was carried out 32 days after seed sowing and the third and last survey was done after one month from the second survey. The recorded data were subjected to the statistical analysis of the variance (one-way ANOVA). The results were compared to the post hoc Tukey's HDS test.

Fusarium spp. [3] = experiment: Field trial onion var. Elenka, emergence and bio-control under natural Fusarium spp. inoculum pressure (FC2020); assay type: in vivo; settings: for number of emerged seedlings: control 182.50; for number of emerged plants: fourth survey (97 days after the sowing)
Experimental: as §1
In the preparation phase before the sowing, the fields were not treated with herbicides or fungicides. During the experimental test, carried out following the agronomical good practices, harmful bacteria and insects' infections were not observed, causing damages to the cultures during the experiment. The weeds were controlled according to the disciplinary regulation described in Cornell Vegetable Management Guidelines and Recommendations (Reiners et al., 2019).
Samples of symptomatic material such as onion roots and bulbs were withdrawn during the cultural season for isolating Fusarium-like fungal colonies and the subsequent identification thereof and confirmation of the etiological agent, through a preliminary analysis of conidial identification at the microscope, followed by a molecular analysis. The molecular identification was carried out through the amplification of the conserved region ITS by polymerase chain reaction (PCR) according to White et al., 1990. The amplification products were then purified and sequenced at Bio-Fab Research s.r.l. (Rome, IT). The nucleotide sequences of ribosomal DNA of the conserved region ITS (Internal Transcription Spaces) were then analyzed through the program for the research of sequence similarity in the international DNA database BLAST (Basic Local Alignment Search Tool;//www.ncbi.nlm.nih.gov/BLAST).

onion var. Elenka = experiment: Field trial onion var. Elenka, agronomic features (phenological development) (FC2020); assay type: in vivo, Allium cepa
Experimental: as §1
For the assay description, experimental design, agronomic practices, see Example 7. Before sowing, the fields were not treated with herbicides or fungicides. During the experimental field trial, carried out according to the best agronomical practices, harmful bacteria and insects' infections were not observed, causing damages to the cultures during the experiment. The weeds were managed according to the disciplinary regulations described in Cornell Vegetable Management Guidelines and Recommendations (Reiners et al., 2019). […]

fennel var. Crono [4] = experiment: Field trial fennel var. Crono, emergence, germination and vigor (AQ2021); assay type: in vivo, Foeniculum vulgare; settings: for average vigor index: scale 1-4 (Table 8)
Experimental: For the field trial description, experimental design, and the applied agronomic practices, see Example 10.
For this experiment, sowing was carried out with mechanical seeder. The first survey was carried out 14 days after the sowing, assessing the whole length of each plot: 1.5 m (width)×100 m (length) with four sowing rows per plot. The second survey was carried out one month after sowing and the third and last survey two months after sowing, assessing both number of emerged plants and vigor according to the assessment scale described in Table 8. The recorded data were subjected to the statistical analysis of the variance (one-way ANOVA). The results were compared to the post hoc Tukey's HDS test.

[5] = first survey (18 days after the sowing)
[6] = second survey (42 days after the sowing)

N#Cc1c[nH]cc1-c1cccc2c1OC(F)(F)O2 [Fludioxonil, fludioxonil]
number of plants emerged (Fusarium spp. [1]): 210.12
Number of emerged plants, Survey 1 Average value (fennel var. Crono [2]; AQ2020, 20 days after the sowing, control 339.50): 339.50
Number of emerged plants, Survey 2 Average value (fennel var. Crono [2]; AQ2020, 32 days after sowing, after manual thinning, control 194.40): 217.30
Number of emerged plants, Survey 3 Average value (fennel var. Crono [2]; AQ2020, one month from the second survey, control 187.00): 198.62
number of emerged seedlings (Fusarium spp. [3]; [5]): 175.63
number of emerged plants (Fusarium spp. [3]): 72.75
number of plants emerged (Fusarium spp. [3]; [6]): 147.00
plant height (onion var. Elenka; second survey): 10.11 cm
Number of emerged plants, Survey 1 Average value (fennel var. Crono [4]; AQ2021, 14 days after the sowing, control 313.00): 323.88
Number of emerged plants, Survey 2 Average value (fennel var. Crono [4]; AQ2021, one month after sowing, after manual thinning, control 180.75): 205.00
average vigor index (fennel var. Crono [4]; AQ2021, second survey, control 2.34): 2.49
average vigor index (fennel var. Crono [4]; AQ2021, third survey, control 2.71): 3.01
Number of emerged plants, Survey 3 Average value (fennel var. Crono [4]; AQ2021, two months after sowing, control 173.00): 186.63

O=[O+][O-] [Ozone]
number of plants emerged (Fusarium spp. [1]): 185.87
increase of the germinal emergence with respect to the control (Fusarium spp. [3]; [5]): 17%
increase of the germinal emergence with respect to the treatment with Streptomyces sp. SA51 (Fusarium spp. [3]; [5]): 26%
increase of the germinal emergence with respect to the treatment with fludioxonil (Fusarium spp. [3]; [5]): 22%
number of emerged seedlings (Fusarium spp. [3]; [5]): 214.63
number of emerged plants (Fusarium spp. [3]): 119.17
increase of number of emerged plants with respect to Streptomyces sp. SA51 (Fusarium spp. [3]; [6]): 51%
increase of number of emerged plants with respect to fludioxonil (Fusarium spp. [3]; [6]): 41%
number of plants emerged (Fusarium spp. [3]; [6]): 207.88
number of leaves (onion var. Elenka; third survey): 4.69

— US20250359555A1, “STREPTOMYCES VENEZUELAE FOR THE BIOLOGICAL CONTROL OF PLANT DISEASES” (UNIVERSITA' DEGLI STUDI DI MODENA E REGGIO EMILIA (80%), priority 2022, published 2025)
